Experimental data from US10398751B2, “Pharmaceutical compositions of water soluble peptides with poor solubility in isotonic conditions and methods for their use” (STRONGBRIDGE IRELAND LIMITED, priority 2016, dated 2019).
Values after ≈ are worked out from the molar mass of the structure shown. Read-outs that look alike come from different tables or passages of the source.

Assays:
[1] = Density, pH and surface tension of solutions (capillary method); type: physicochemical; settings: DDW, 25° C., baseline 64.9 dyne/cm
Protocol: Tween 80 was used as a control surfactant for comparison. Densities were measured on 1 mL fixed volume samples. […] The effect of veldoreotide acetate on the pH of double distilled water (DDW) was the same at all veldoreotide acetate concentrations. The pH of DDW of 5.0 was reduced to pH 4.5. The effect of veldoreotide acetate on the density of DDW (starting density of DDW was 1.003 g/ml) was concentration dependent from 1.4 mg/ml to 21.5 mg/ml with density ranging from 0.986 to 0.998 g/ml respectively. However, at veldoreotide acetate concentrations of 45 and 102 mg/ml the density was increased above the starting density of DDW. […] The effect of veldoreotide acetate on the surface tension of DDW (starting surface tension was 64.9 dyne/cm) was consistent with veldoreotide acetate behaving as a peptide amphiphile (surfactant). The surface tension of DDW was reduced by veldoreotide acetate at maximum from 64.9 to 45 dyne/cm. In order to elucidate the meaning of this effect, Tween 80 was used as a reference surfactant. Other surfactants include Polexamer 188. The reduction of surface tension induced by Tween 80 was in the range of 40% (from 64.9 dyne/cm to about 39 dyne/cm), in comparison to veldoreotide acetate of 30% (from 64.9 dyne/cm to about 45 dyne/cm). Note that, under these experimental conditions; the effect of Tween 80 indicated a concentration-effect relationship. Whereas, the effect of veldoreotide acetate on the reduction of surface tension was at the same range for all concentrations tested.
The data of table 4 show the surface activity of highly concentrated COR005 acetate (200 mg/ml), with or without additives in WFI, which emulates the preparation conditions of the primary emulsion of the microspheres. The results of Test 1 and 2 (Table 4) show the effect of COR005 acetate on the surface tension of water. When COR005 acetate is dissolved in water the surface tension is reduced by about 36%, from 68.5 dyne/cm for the water alone to 44 dyne/cm for the solution of water with CR005 acetate at 200 mg/ml.

[2] = Solubility and surface activity in PBS under physiological conditions (37° C.); type: physicochemical; settings: COR005 10 mg/ml; for Surface tension (dyne/cm) / Effect of surface tension (% of baseline): PBS pH 7.4, 37° C.; for solubility: PBS, pH 7.4, PBS pH 7.4, 37° C.
Protocol: Table 6 summarizes the effects of additives on the surface activity profile of COR005 acetate under physiological conditions (37° C.) that emulate the release of COR005 at the injection site.

[3] = Comparative surface tension of peptides in water for injection; type: physicochemical; settings: 10 mg/ml in WFI
[4] = Pharmacokinetics of IR formulations in minipigs; type: in vivo; settings: minipig, plasma, sc; for bioavailability: read-out: Minipigs absolute BA (F %)
[5] = 0.4 mg/kg, IR, SC, 0.4 mg/Kg, DEX:PEP 5:1 saline
[6] = 0.4 mg/kg, IR, SC, 0.4 mg/Kg, HPB:PEP 15:1 saline

C[C@@H](O)[C@@H]1NC(=O)[C@H](CCCCN)NC(=O)[C@@H](Cc2c[nH]c3ccccc23)NC(=O)[C@H](Cc2c[nH]c3ccccc23)NC(=O)[C@H](Cc2ccccc2)NC(=O)CCCNC(=O)CCCN(CC(N)=O)C(=O)[C@H](Cc2ccccc2)NC1=O [Veldoreotide, cyclo(-γ-aminobutyryl-L-phenylalanyl-L-tryptophanyl-D-tryptophanyl-L-lysyl-L-threonyl-L-phenylalanyl-N-carbamoylmethyl-γ-aminobutyryl)]
reduction of surface tension of water [1]: more than 30%
Surface tension (dyne/cm) ([2]; Dextrose 5 wt %): 49 dyne/cm
Effect of surface tension (% of baseline) ([2]; Dextrose 5 wt %, at 48 h): (−18% at 48 h)
Effect of surface tension (% of baseline) ([2]; Dextrose 5 wt %, baseline PBS/5% DEX): −14%
Surface tension (dyne/cm) ([2]; HPB:PEP 1:2): 45 dyne/cm
Effect of surface tension (% of baseline) ([2]; HPB:PEP 1:2, baseline PBS): −6%
Effect of surface tension (% of baseline) ([2]; HPB:PEP 1:4, baseline PBS): −19%
Surface tension (dyne/cm) ([2]; HPB:PEP 10:1): 50 dyne/cm
Effect of surface tension (% of baseline) ([2]; HPB:PEP 10:1, baseline PBS): +4%
Effect of surface tension (% of baseline) ([2]; no additive, baseline PBS): −29%
solubility ([2]; Dextrose 5 wt %): 3300 µg/mL (≈ 2.94 mM)
solubility ([2]; HPB:PEP 1:2): 5000 µg/mL (≈ 4.45 mM)
solubility ([2]; HPB:PEP 1:4): 3900 µg/mL (≈ 3.47 mM)
solubility ([2]; HPB:PEP 10:1): 8900 µg/mL (≈ 7.92 mM)
solubility ([2]; no additive): 3600 µg/mL (≈ 3.2 mM)
Effect of reduced surface tension (%) ([3]; baseline WFI): −37%
Water surface tension (dyne/cm) ([3]; baseline WFI 52): 33 dyne/cm
bioavailability ([4]; 0.1 mg/kg, IR, SC, 0.1 mg/Kg, DEX:PEP 5:1 saline): 91%
bioavailability ([4]; 0.1 mg/kg, pH 4, IR, SC, 0.1 mg/Kg, Lactic acid buffer pH 4): 45%
Cmax [4, 5]: 238 ng/mL
bioavailability [4, 5]: 88.4%
Cmax [4, 6]: 255 ng/mL
bioavailability [4, 6]: 85.3%
bioavailability ([4]; 0.4 mg/kg, pH 4, IR, SC, 0.4 mg/Kg, Lactic acid buffer pH 4): 69%
Cmax ([4]; 0.4 mg/kg, pH 4, IR, Lactic acid buffer pH 4): 108 ng/mL
